Bridge positions count the residues as written; N and C are the ends. Square brackets hold non-standard residues; d marks the D form. Peptide text beside a SMILES is read from it. tBuAla = CC(C)(C)C[C@H](N)C(=O)O; Cha = N[C@@H](CC1CCCCC1)C(=O)O; R5 = C=CCCC[C@@](C)(N)C(=O)O; S5 = C=CCCC[C@](C)(N)C(=O)O
Assays:
hRSV = conditions: literature; cited from earlier work
bRSV = conditions: literature; cited from earlier work
RSV-mCherry = type: cell-based, HRSV
Method: The inhibitory activity of the peptides of the invention was assessed in HEp-2 cells as described below:
A mCherry-expressing virus recently developed (Rameix-Welti et al., 2014, Nat. Commun., 5:5104) was used to avoid the cumbersome manipulations required with the GFP-expressing virus.
HEp-2 cells were seeded at 5×10^4 cells per well in 96 wells plate the day before the infection. Peptides were 2-fold serially diluted in DMSO (11 dilutions), then further diluted in MEM medium and pre-incubated for 15-20 minutes with 0.2 MOI of RSV-mCherry (Rameix-Welti et al., 2014, supra). Following the washing of Hep-2 cells with MEM without phenol red medium, the cells were incubated with the virus/peptide mixtures for a period of 1 h30-2 h. The cells were washed and further incubated in MEM media containing fetal bovine serum and the same concentration of peptide that was used during the infection step. Plates were incubated 48 h at 37° C. and the mCherry fluorescence was measured using a spectrofluorometer (Tecan infinite M200PRO) with excitation and emission wavelengths of 580 and 620 nm, respectively (expressed in relative fluorescence units RFU). Non-infected HEp-2 cells were used as standards for fluorescence background levels. Each experiment was performed in duplicate and repeated at least twice.

[1] = CD spectroscopy, percentage of helicity; type: physicochemical; conditions: CD at 222 nm, 10 mM phosphate buffer pH 7.5, 50 μM peptide, 25° C.
Method: The secondary structure of the peptides was then characterized by circular dichroism (DC) as described below.
The circular dichroism spectra were acquired on a Jasco J-810 and on a Chirascan spectropolarimeter. The samples were prepared in 10 mM phosphate buffer, pH 7.5, at a peptide concentration of 50 μM. Data were recorded at 25° C. by stepscan from 180 nm to 260 nm in a 0.1 cm pathlength quartz cell using 0.2 nm wavelength increments, 1 nm bandwidth and a response time of 0.5 sec. Each spectrum was an average of three measurements and was subtracted from buffer baseline. The data were converted to per residue molar ellipticity units [θ] (deg·cm2·dmol−1·residue−1) and smoothed using the Igor software. The percentage of helicity was calculated as it follows:
[formula] whereby CD222=molar ellipticity at 222 nm in [mdeg], N=number of amino acids in the peptide and C=peptide molar concentration [mol/l].

chymotrypsin = target: T1, chymotrypsin (Bos taurus, UniProt P00766); experiment: Proteolytic stability assay, chymotrypsin; type: in vitro ADME; conditions: chymotrypsin (isolated protease); 100 mM Tris-HCl pH 8.0, 10 mM CaCl2, 25° C., LC-MS; read-out: t1/2 (min) Chymotrypsin
T1 construct: purchased Thermo Fisher Scientific
Method: (§1) The compounds according to the invention are tested for their stability in a proteolytic stability assay as described below which is an important parameter to assess for the development of peptide therapeutics. Peptides of the invention 4bb, 4ca, 4a and their unstapled comparative peptide 4, as well as both SAH-RSVFBD isomers were treated with chymotrypsin and trypsin, and analysed by LC/MS to quantify the reaction products over time.
(§2) In vitro proteolytic degradation was measured via LC-MS using an Agilent Infinity 1280 UHPLC system coupled to an Agilent quadruple-time-of-flight (QTOF) 6530 with an Agilent Jet Stream electrospray ionisation (AJS ESI) source (all Agilent Technologies, Waldbronn, Germany). 5 μl of digested sample were injected onto a C18 column (Zorbax Eclipse Plus RRHD, 1.8 μm, 2.1*100 mm, Agilent Technologies, Waldbronn, Germany) equilibrated with solvent A and eluted with a flow rate of 0.4 ml/min over a 5-95% gradient of solvent B in 5 minutes, followed by 1.5 minutes at 95% and 0.5 minutes post-time where solvent A was 95% water, 5% acetonitrile with 0.2% formic acid and solvent B was 5% water, 95% acetonitrile with 0.2% formic acid. The AJS ESI source was operated with a capillary voltage of 4000V and a nozzle voltage of 600V with a drying gas temperature of 325° C. and flow rate of 10 l/min, nebulising gas pressure of 20 psi, and a sheath gas temperature of 300° C. and flow rate of 11l/min. Mass spectra were acquired in the positive ion mode from 100-3200 m/z at a rate of 1 scan per second in extended dynamic range (2 GHz) mode. The fragmentor, skimmer and octopole Radio Frequency voltages were set to 200, 60 and 750 V respectively. Data were acquired and analysed with Agilent MassHunter Workstation (version B.05).
(§3) Peptide digestion was performed as it follows: 10 μl of peptide at 0.29 mM in 50/50 acetonitrile/water were dissolved in 990 μl 100 mM Tris-HCl, pH 8.0 with 10 mM CaCl2. Following measurement of the undigested (to) sample, 10 μl of chymotrypsin at 50 μg/ml in 100 mM Tris-HCl, pH 8.0 with 10 mM CaCl2 were added and the sample was vortexed and placed immediately in the autosampler, set to 25° C. Trypsin digestion was performed as with chymotrypsin except that the buffer was in 50 mM Tris-HCl, pH8. Chymotrypsin and trypsin were purchased from Thermo Fisher Scientific.
(§4) The level of intact peptide was quantified by serial injection over time. Integration of the intact peptide compound chromatogram was performed using the Agilent Molecular Feature Extraction (MFE) algorithm. A plot of the intact peptide MFE peak area over time gave an exponential decay curve, from which the half-life was determined using MatLab […].

trypsin = experiment: Proteolytic stability assay, trypsin; type: in vitro ADME; conditions: trypsin (isolated protease), pH 8; 50 mM Tris-HCl pH8, 25° C., LC-MS; read-out: t1/2 (min) Trypsin
Method: as §1, §2, §3, §4

circular dichroism = conditions: 10 mM phosphate; pH 7.5; 25 °C; 50 uM

SMILES	% helicity [1] [%]	helicity (circular dichroism) [%]	further results
O=c1n(Cc2nc3ccccc3n2CCCCO)c2cnccc2n1C1CC1 [BMS-433771]	–	–	activity against hRSV (hRSV): active; activity against bRSV (bRSV): active
CC[C@H](C)[C@H](NC(=O)[C@H](Cc1ccccc1)NC(=O)[C@H](C)NC(=O)[C@H](CC(C)C)NC(=O)[C@H](CO)NC(=O)[C@H](CCC(N)=O)NC(=O)[C@H](CCC(=O)O)NC(C)=O)C(=O)N[C@@H](CCCNC(=N)N)C(=O)N[C@@H](CCCCN)C(=O)N[C@@H](CO)C(=O)N[C@@H](CC(=O)O)C(=O)N[C@@]1(C)CCCC=CCCC[C@@](C)(C(=O)N[C@H](C(N)=O)C(C)C)NC(=O)[C@H](Cc2c[nH]cn2)NC(=O)[C@H](CC(C)C)NC(=O)[C@H](CC(C)C)NC1=O [Peptide 3c, reference compound] (Ac-EQSLAFIRKSD[S5]LLH[S5]V-NH2; staple 12-16)	–	–	inhibitory activity in HEp-2 cells (RSV-mCherry; RSV-mCherry): inactive
CC[C@H](C)[C@H](NC(=O)[C@H](CCCCN)NC(=O)[C@H](CCC(=O)O)NC(C)=O)C(=O)N[C@@H](CC(N)=O)C(=O)N[C@@H](CCC(N)=O)C(=O)N[C@@H](CO)C(=O)N[C@@H](CC(C)C)C(=O)N[C@@]1(C)CCCC=CCCC[C@@](C)(C(=O)N[C@@H](CO)C(=O)N[C@@H](CC(=O)O)C(=O)N[C@@]2(C)CCCC=CCCC[C@@](C)(C(=O)N[C@H](C(N)=O)C(C)C)NC(=O)[C@H](Cc3c[nH]cn3)NC(=O)[C@H](CC(C)C)NC(=O)[C@H](CC(C)C)NC2=O)NC(=O)[C@H](CCCNC(=N)N)NC(=O)[C@H]([C@@H](C)CC)NC(=O)[C@H](Cc2ccccc2)NC1=O [Peptide 4a, EKINQSL Xaa8 FIR Xaa12 SD Xaa15 LLH Xaa19 V] (Ac-EKINQSL[S5]FIR[S5]SD[S5]LLH[S5]V-NH2; staple 8-12, 15-19)	23.5	–	half-life at 2.9 µM (chymotrypsin): 4480 min; half-life at 2.9 µM (trypsin): 76 min
CC[C@H](C)[C@H](NC(=O)[C@H](CCCCN)NC(=O)[C@H](CCC(=O)O)NC(C)=O)C(=O)N[C@@]1(C)CCCC=CCCC[C@@](C)(C(=O)N[C@@H](Cc2ccccc2)C(=O)N[C@H](C(=O)N[C@@]2(C)CCCC=CCCC[C@@](C)(C(=O)N[C@@H](CC(C)C)C(=O)N[C@@H](CC(C)C)C(=O)N[C@@H](Cc3c[nH]cn3)C(=O)N[C@@H](CC(N)=O)C(=O)N[C@H](C(N)=O)C(C)C)NC(=O)[C@H](CC(=O)O)NC(=O)[C@H](CO)NC(=O)[C@H](CCCCN)NC2=O)[C@@H](C)CC)NC(=O)[C@H](CC(C)C)NC(=O)[C@H](CO)NC(=O)[C@H](CCC(N)=O)NC1=O [Peptide 4bb, EKI Xaa4 QSL Xaa8 FI Xaa11 KSD Xaa15 LLHNV] (Ac-EKI[S5]QSL[S5]FI[S5]KSD[S5]LLHNV-NH2; staple 4-8, 11-15)	52.9	–	half-life at 2.9 µM (chymotrypsin): 3010 min; half-life at 2.9 µM (trypsin): 20 min
CC[C@H](C)[C@@H]1NC(=O)[C@H](Cc2ccccc2)NC(=O)[C@@](C)(NC(=O)[C@H](CC(C)C)NC(=O)[C@H](CO)NC(=O)[C@]2(C)CCCC=CCCC[C@@](C)(NC(=O)[C@H](CCC(=O)O)NC(C)=O)C(=O)N[C@@H]([C@@H](C)CC)C(=O)N[C@@H](CC(N)=O)C(=O)N2)CCCC=CCCC[C@@](C)(C(=O)N[C@@H](CO)C(=O)N[C@@H](CC(=O)O)C(=O)N[C@@H](CCC(=O)O)C(=O)N[C@@H](CC(C)(C)C)C(=O)N[C@@H](CC(C)C)C(=O)N[C@@H](Cc2c[nH]cn2)C(=O)N[C@@H](CC(N)=O)C(=O)N[C@H](C(N)=O)C(C)C)NC(=O)[C@H](CCCNC(=N)N)NC1=O [Peptide 4ca-var4, E Xaa2 IN Xaa5 SL Xaa8 FIR Xaa12 SDE Xaa16LHNV] (Ac-E[R5]IN[S5]SL[S5]FIR[S5]SDE[tBuAla]LHNV-NH2; staple 2-5, 8-12)	98.4	98.4	EC50 (RSV-mCherry; HEp-2 cells, 0.2 MOI RSV-mCherry, 48 h): 0.2 ± 0.05 µM
CC[C@H](C)[C@@H]1NC(=O)[C@H](Cc2ccccc2)NC(=O)[C@@](C)(NC(=O)[C@H](CC(C)C)NC(=O)[C@H](CO)NC(=O)[C@]2(C)CCCC=CCCC[C@@](C)(NC(=O)[C@H](CCC(=O)O)NC(C)=O)C(=O)N[C@@H]([C@@H](C)CC)C(=O)N[C@@H](CCCNC(=N)N)C(=O)N2)CCCC=CCCC[C@@](C)(C(=O)N[C@@H](CO)C(=O)N[C@@H](CC(=O)O)C(=O)N[C@@H](CCC(=O)O)C(=O)N[C@@H](CC(C)(C)C)C(=O)N[C@@H](CC(C)C)C(=O)N[C@@H](Cc2c[nH]cn2)C(=O)N[C@@H](CC(N)=O)C(=O)N[C@H](C(N)=O)C(C)C)NC(=O)[C@H](CCCNC(=N)N)NC1=O [Peptide 4ca-var6, E Xaa2 IR Xaa5 SL Xaa8 FIR Xaa12 SDE Xaa16LHNV] (Ac-E[R5]IR[S5]SL[S5]FIR[S5]SDE[tBuAla]LHNV-NH2; staple 2-5, 8-12)	85.6	85.6	–
CC[C@H](C)[C@@H]1NC(=O)[C@H](Cc2ccccc2)NC(=O)[C@@](C)(NC(=O)[C@H](CC(C)C)NC(=O)[C@H](CO)NC(=O)[C@]2(C)CCCC=CCCC[C@@](C)(NC(=O)[C@H](CCC(=O)O)NC(C)=O)C(=O)N[C@@H]([C@@H](C)CC)C(=O)N[C@@H](CC(N)=O)C(=O)N2)CCCC=CCCC[C@@](C)(C(=O)N[C@@H](CO)C(=O)N[C@@H](CC(=O)O)C(=O)N[C@@H](CCC(=O)O)C(=O)N[C@@H](CC2CCCCC2)C(=O)N[C@@H](CC(C)C)C(=O)N[C@@H](Cc2c[nH]cn2)C(=O)N[C@@H](CC(N)=O)C(=O)N[C@H](C(N)=O)C(C)C)NC(=O)[C@H](CCCNC(=N)N)NC1=O [Peptide 4ca-var7, E Xaa2 IN Xaa5 SL Xaa8 FIR Xaa12 SDE Xaa16LHNV] (Ac-E[R5]IN[S5]SL[S5]FIR[S5]SDE[Cha]LHNV-NH2; staple 2-5, 8-12)	91.4	91.4	–
CC[C@H](C)[C@@H]1NC(=O)[C@H](Cc2ccccc2)NC(=O)[C@@](C)(NC(=O)[C@H](CC(C)C)NC(=O)[C@H](CO)NC(=O)[C@]2(C)CCCC=CCCC[C@@](C)(NC(=O)[C@H](CCC(=O)O)NC(C)=O)C(=O)N[C@@H]([C@@H](C)CC)C(=O)N[C@@H](CC(N)=O)C(=O)N2)CCCC=CCCC[C@@](C)(C(=O)N[C@@H](CO)C(=O)N[C@@H](CC(=O)O)C(=O)N[C@@H](CCC(=O)O)C(=O)N[C@@H](CC(C)(C)C)C(=O)N[C@@H](CC(C)C)C(=O)N[C@@H](Cc2c[nH]cn2)C(N)=O)NC(=O)[C@H](CCCNC(=N)N)NC1=O [Peptide 4ca-var8, E Xaa2 IN Xaa5 SL Xaa8 FIR Xaa12 SDE Xaa16LH] (Ac-E[R5]IN[S5]SL[S5]FIR[S5]SDE[tBuAla]LH-NH2; staple 2-5, 8-12)	75.8	75.8	–
Cc1ccc(CCCO)c(NCc2ccc3nc(NCCCN4CCOCC4)n(Cc4nc(C)ccc4O)c3c2)c1 [TMC-353121]	–	–	activity against hRSV (hRSV): active; activity against bRSV (bRSV): active

Source: patent US11299518B2, “Fusion respiratory syncytial virus inhibitors and use thereof” (priority 2016, dated 2022)
